Values of other authors in patent US20130344180A1, “WEIGHT LOSS AND SATIATION COMPOSITION” (YL HOLDINGS, INC., priority 2012, published 2013).

Experiments:
[1] = system: cellular metabolism; conditions: by increasing cellular metabolism
[2] = mice and rats
[3] = mice and rats; remark: listed apart in the source
[4] = system: E1, E2, and E3 isozymes of retinaldehyde dehydrogenase (Raldh)
[5] = system: prostate gland tumors; conditions: various strains of rats
[6] = biological target: PPARγ (Homo sapiens, UniProt P37231)
[7] = system: adipocyte differentiation
[8] = in vivo
[9] = system: fat cells in white adipose tissue; conditions: by increasing the expression of thermogenin

Sequence of PPARγ (P37231 whole entry, species assumed): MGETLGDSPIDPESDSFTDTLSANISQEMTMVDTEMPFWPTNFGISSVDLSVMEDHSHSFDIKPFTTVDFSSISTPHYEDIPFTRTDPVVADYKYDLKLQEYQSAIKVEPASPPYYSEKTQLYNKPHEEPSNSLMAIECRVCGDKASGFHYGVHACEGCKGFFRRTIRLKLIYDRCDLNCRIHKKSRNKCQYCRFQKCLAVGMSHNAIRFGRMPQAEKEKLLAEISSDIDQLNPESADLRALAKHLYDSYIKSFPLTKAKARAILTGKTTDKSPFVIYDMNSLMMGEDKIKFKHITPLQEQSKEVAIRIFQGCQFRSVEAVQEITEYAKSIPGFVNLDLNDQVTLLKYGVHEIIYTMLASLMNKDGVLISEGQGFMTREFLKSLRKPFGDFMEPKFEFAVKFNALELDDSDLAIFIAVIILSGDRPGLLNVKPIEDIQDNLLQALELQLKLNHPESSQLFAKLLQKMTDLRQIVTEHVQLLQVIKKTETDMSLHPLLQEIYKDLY

CC(C)=CCCC(C)=CC=O [Citral, 3,7-dimethyl-2,6-octadienal]
thermogenic response [1]: provide thermogenic response
toxicity [2]: non-toxic
carcinogenic potential [3]: does not possess carcinogenic potential
inhibition of E1, E2, and E3 isozymes of retinaldehyde dehydrogenase (Raldh) [4]: competitively inhibits
effect against prostate gland tumors [5]: effective

CCCC\C=C/C=C/C=C\CCCCCCCC(=O)O [punicic acid]
ligand of PPARγ [6]: acts as a ligand
adipocyte differentiation [7]: suppression
high-fat-diet induced obesity and insulin resistance [8]: suppression

Fucoxanthin
fat burning within fat cells [9]: promote fat burning
